Measured values from patent US5491145A, “Imidazopyridazines, their production and use” (Takeda Chemical Industries, Ltd., priority 1992, dated 1996).

Test system: PAF-induced bronchoconstriction in guinea pigs
Assay: Effect on platelet activating factor (PAF)-induced guinea pig bronchoconstriction (Konzett-Roessler method)
Assay type: in vivo, guinea pig (male Hartley)
Details: administered orally one hour before PAF (1 μg/kg i.v.)
Experimental: Effect on platelet activating factor (PAF)-induced guinea pig bronchoconstriction Male Hartley guinea pigs (body weights about 500 g) were used. Bronchoconstriction induced by PAF, 1 μg/kg i.v., in guinea pigs was measured using to the method of Konzett-Roessler. With the guinea pig immobilized in the dorsal position, tracheotomy was performed under urethane (1.5 g/kg i.v.) anesthesia and the trachea was connected through a cannula to a respirator. The side branch of the tracheal cannula was connected to a transducer (model 7020, Ugobasile). With the volume of air per feed being controlled at 3-7 ml, the ventilation frequency at 70/min. and the pulmonary loading pressure at 10 cm H2 O, the volume of overflow air was recorded on a […], San-ei Sokki) through the transducer. After administration of gallamine (1 mg/kg i.v.), PAF, 1 μg/kg, dissolved in physiological saline was administered through a jugular vein cannula and the induced bronchoconstriction was recorded for 15 minutes. The drug suspended in a 5% solution of gum arabic was administered orally in a dose of 10 mg/kg or 3 mg/kg one hour before PAF treatment: The results are presented in Table 1.

| Compound | % Inhibition of PAP-induced bronchoconstriction (10 mg/kg) | % Inhibition of PAP-induced bronchoconstriction (3 mg/kg) |
| --- | --- | --- |
| Cc1cc2nccn2nc1OCC(C)(C)CS(N)(=O)=O [Example 3, 6-(2,2-dimethyl-3-sulfamoyl-1-propoxy)-7-methylimidazo[1,2-b]pyridazine] | 76% |  |
| CCC(CC)(COc1nn2ccnc2cc1C)CS(N)(=O)=O.Cl [Example 15, 6-(2,2-diethyl-3-sulfamoyl-1-propoxy)-7-methylimidazo[1,2-b]pyridazine hydrochloride] |  | 80% |
| 6-(2,2-diethyl-5-sulfamoyl-1-pentyloxy)-7-methylimidazo[1,2-b]pyridazine [Example 17] |  | 54% |
| Cc1cc(OCC(C)(C)CS(N)(=O)=O)nn2ccnc12 [Example 5, 6-(2,2-dimethyl-3-sulfamoyl-1-propoxy)-8-methylimidazo[1,2-b]pyridazine] | 90% |  |
| CCC(C)(COc1nn2ccnc2cc1C)CS(N)(=O)=O (stereo not shown) [Example 20] |  | 57% |
| Cc1cc2nccn2nc1OCC(C)(C)CCS(N)(=O)=O [Example 11, 6-(2,2-dimethyl-4-sulfamoyl-1-butoxy)-7-methylimidazo[1,2-b]pyridazine] | 71% | 58% |
